These are literature values, as cited in patent US20030166006A1, “Glucose-1-phosphate thymidylyltransferase and method for selecting inhibitors thereof” (priority 2000, published 2003).

The data set addresses RmlA from Pseudomonas aeruginosa (Pseudomonas aeruginosa, UniProt Q9HU22). To be noted: allosteric feedback inhibition by final product of the four enzyme pathway; Melo & Glaser, 1965.

Sequence of RmlA from Pseudomonas aeruginosa (Q9HU22 1-293): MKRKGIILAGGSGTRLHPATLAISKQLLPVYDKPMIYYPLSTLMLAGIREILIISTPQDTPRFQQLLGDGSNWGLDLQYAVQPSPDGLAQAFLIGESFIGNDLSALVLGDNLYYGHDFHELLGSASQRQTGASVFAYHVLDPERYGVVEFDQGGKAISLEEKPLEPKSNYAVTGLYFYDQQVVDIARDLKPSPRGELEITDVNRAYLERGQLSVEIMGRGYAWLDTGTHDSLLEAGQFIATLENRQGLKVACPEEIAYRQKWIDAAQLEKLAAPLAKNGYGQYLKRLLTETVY

In the case of `Cc1cn([C@H]2C[C@H](O)[C@@H](COP(=O)(O)OP(=O)(O)OC3OC(C)C(O)C(O)C3O)O2)c(=O)[nH]c1=O` (stereo partly drawn) [dTDP-rhamnose, 2′-deoxy-thymidylyl-diphospho-L-rhamnose], the “inhibition of RmlA” value is reported as “strongly inhibited”.
